According to ChEMBL document CHEMBL1201862, “PubChem BioAssay data set” (2004):
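Protocol summary: plate cells (96-well), add compound at 5 concentrations, incubate 48 h, interpolate endpoints linearly. GI50 = concentration required for 50% inhibition of growth.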 Activity calls are given as the source filed them. Cut-off read from the data, not from the text of the source: active = GI50 up to about 1.1 µM and inactive = higher.

Tests used:
Experiment in all cases: NCI anticancer screen, dose series, 48 h
A498 = tested on: A498
HCT-116 = tested on: HCT-116
HCT-15 = tested on: HCT-15
IGROV-1 = tested on: IGROV-1
K562 = tested on: K562
KM12 = tested on: KM12
MDA-MB-231 = tested on: MDA-MB-231
MDA-N = tested on: MDA-N
NCI-H522 = tested on: NCI-H522
OVCAR-3 = tested on: OVCAR-3
OVCAR-5 = tested on: OVCAR-5
PC-3 = tested on: PC-3
SF-539 = tested on: SF-539
SK-MEL-28 = tested on: SK-MEL-28
SK-MEL-2 = tested on: SK-MEL-2
SR = tested on: SR
TK-10 = tested on: TK-10
U-251 = tested on: U-251
UO-31 = tested on: UO-31
CCRF-CEM = tested on: CCRF-CEM

| SMILES | GI50 (A498) | GI50 (HCT-116) | GI50 (HCT-15) | GI50 (IGROV-1) | GI50 (K562) | GI50 (KM12) | GI50 (MDA-MB-231) | GI50 (MDA-N) | GI50 (NCI-H522) | GI50 (OVCAR-3) | GI50 (OVCAR-5) | GI50 (PC-3) | GI50 (SF-539) | GI50 (SK-MEL-28) | GI50 (SK-MEL-2) | GI50 (SR) | GI50 (TK-10) | GI50 (U-251) | GI50 (UO-31) | GI50 (CCRF-CEM) |
| --- | --- | --- | --- | --- | --- | --- | --- | --- | --- | --- | --- | --- | --- | --- | --- | --- | --- | --- | --- | --- |
| CN(C)CCCNc1cc(O)c2c(c1O)C(=O)c1ccccc1C2=O | 19.5 µM (inactive) | 4.9 µM (inactive) | 5.26 µM | 10.6 µM (inactive) | 2.79 µM (inactive) | 9.4 µM (inactive) | 12.6 µM (inactive) | 14.3 µM (inactive) | 21.8 µM (inactive) | 11.3 µM (inactive) | 18.9 µM (inactive) | 13.8 µM (inactive) | 12.1 µM (inactive) | 16.4 µM (inactive) | 19.8 µM (inactive) | 3.01 µM (inactive) | 10.2 µM (inactive) | 13.2 µM (inactive) | 1.69 µM (inactive) |  |
| CCOC(=O)C12OC(CCC1=O)C(C(=O)OC)=C2C(=O)OC (stereo not drawn) | > 10 µM (inactive) | > 10 µM (inactive) | > 10 µM | > 10 µM (inactive) | > 10 µM (inactive) | > 10 µM (inactive) | > 10 µM (inactive) | > 10 µM (inactive) | > 10 µM (inactive) | > 10 µM (inactive) | > 10 µM (inactive) | > 10 µM (inactive) | > 10 µM (inactive) | > 10 µM (inactive) | > 10 µM (inactive) | > 10 µM (inactive) | > 10 µM (inactive) | > 10 µM (inactive) | > 10 µM (inactive) | > 10 µM (inactive) |
| C=CC(C)CCC(C/C=C(\C)CCC=C(C)C)C(=C)CCCC(C)C (stereo not drawn) | > 100 µM (inactive) | > 100 µM (inactive) | > 100 µM | > 100 µM (inactive) | > 100 µM (inactive) | > 100 µM (inactive) | > 100 µM (inactive) | > 100 µM (inactive) | > 100 µM (inactive) | > 100 µM (inactive) | > 100 µM (inactive) | > 100 µM (inactive) | > 100 µM (inactive) | > 100 µM (inactive) | > 100 µM (inactive) | > 100 µM (inactive) | > 100 µM (inactive) | > 100 µM (inactive) | > 100 µM (inactive) | > 100 µM (inactive) |
| c1cncc(CNCCN2CCNCC2)c1 | > 100 µM (inactive) | > 100 µM (inactive) | > 100 µM | > 100 µM (inactive) | > 100 µM (inactive) | > 100 µM (inactive) | > 100 µM (inactive) | > 100 µM (inactive) | > 100 µM (inactive) | > 100 µM (inactive) | > 100 µM (inactive) | > 100 µM (inactive) | > 100 µM (inactive) | > 100 µM (inactive) | > 100 µM (inactive) | > 100 µM (inactive) | > 100 µM (inactive) | > 100 µM (inactive) | > 100 µM (inactive) |  |
| Fc1cc(C2=C[C@H](c3ccc4c(c3)OCO4)NC(=S)N2)c(Cl)cc1Cl | 20.8 µM (inactive) | 27.5 µM (inactive) | 37.4 µM | 27.4 µM (inactive) | 32.1 µM (inactive) | 38 µM (inactive) | 23.8 µM (inactive) | 35.6 µM (inactive) | 31.6 µM (inactive) | 30.2 µM (inactive) | 44.1 µM (inactive) | 21.4 µM (inactive) | 46.7 µM (inactive) | 40.3 µM (inactive) | 20.9 µM (inactive) | 31.9 µM (inactive) | 28.8 µM (inactive) | 22.9 µM (inactive) | 39.2 µM (inactive) | 21.8 µM (inactive) |
